Experimental data taken from patent US10258072B2, “Environmentally friendly gelator using medium chain triglycerides and method of use” (Research Foundation of the City University of New York, priority 2014, dated 2019).

Legend:
[1] = Gel-to-sol transition temperature (Tgel) in oil bath; assay type: physicochemical
Experimental: (§1) Preparation and Characterization Molecular Gels. Gels were prepared by adding the solid glassy glycosides (10.0-50.0 mg gelator) to the desired solvent (1 mL). The mixture was then heated to disperse the gelator at five degrees below the boiling point of organic solvents, and at 125° C. for oils to produce a homogeneous sol. The sol was kept at this temperature for 10 minutes under constant agitation to fully disperse the gelator. The sol was then cooled to room temperature to allow for self-assembly and after a length of time (between 2-24 hours), the samples were inverted to confirm gel formation. The efficacy of gel formation was examined by determining the minimum gelation concentration (MGC) and gel-to-sol transition temperature (Tgel). Gel samples were diluted with solvent until after setting and vial inversion a gel, partial gel, or sol was formed. The gel transition temperature was determined by submersing a gel sample in an oil bath, and increasing the temperature until the gel flowed like a liquid, indicating the disassembly of the gelator structure.

[2] = Gelation test by vial inversion: gelation index and minimum gelation concentration (MGC); assay type: physicochemical; design: key to Gelation Index: I = Insoluble; PS = Partially Soluble
Experimental: as §1, with “structure. MGC was determined beginning from 5 wt. % samples (50 mg gelator in 1 mL solvent) or below the concentration of precipitation for gelators and diluting the samples until a sol is formed.” for “structure.”

| Tgel ([1]; 5 wt. % gel in Coconut Oil) | Minimum Gelation Concentration ([2]; Coconut Oil (edible oil)) | Minimum Gelation Concentration ([2]; Grape seed Oil (edible oil)) | Minimum Gelation Concentration ([2]; Hazelnut Oil (edible oil)) | Minimum Gelation Concentration ([2]; Hexanes (organic solvent)) | Minimum Gelation Concentration ([2]; Jojoba Oil (edible oil)) | Minimum Gelation Concentration ([2]; Mineral Oil (organic solvent)) | Minimum Gelation Concentration ([2]; Red Palm Oil (edible oil)) | Minimum Gelation Concentration ([2]; Toluene (organic solvent)) | Gelation Index ([2]; Water (aqueous solvent)) | Compound | further results |
| --- | --- | --- | --- | --- | --- | --- | --- | --- | --- | --- | --- |
| 106-107 °C | 0.27 wt. % | 0.25 wt. % | 0.26 wt. % | 2.1 wt. % | 0.25 wt. % | 1.4 wt. % | 0.34 wt. % | 0.5 wt. % | I | CCCCCCCC(=O)OC[C@H]1O[C@@H](Oc2ccc(CCC(C)=O)cc2)[C@H](O)[C@@H](O)[C@@H]1O [RKG8, ((2R,3S,4S,5R,6S)-3,4,5-trihydroxy-6-(4-(3-oxobutyl)phenoxy)tetrahydro-2H-pyran-2-yl) methyl octanoate] | Tgel ([1]; 5 wt. % gel in Olive Oil): 108-110 °C; Tgel ([1]; 5 wt. % gel in Toluene): 48-50 °C |
| 111-112 °C | 0.28 wt. % | 0.30 wt. % | 0.24 wt. % | 0.24 wt. % | 0.26 wt. % | 0.24 wt. % | 0.36 wt. % | 0.36 wt. % | I | CCCCCCCCCCCCCCCCCC(=O)OCC1OC(Oc2ccc(CCC(C)=O)cc2)C(O)C(O)C1O (stereo not drawn) [RKG18, raspberry ketone glucoside stearate] | – |
| – | 0.54 wt. % | 0.66 wt. % | 0.56 wt. % | – | 0.48 wt. % | 0.80 wt. % | 0.72 wt. % | 0.73 wt. % | – | CCCCCCCCC=CCCCCCCCC(=O)OCC1OC(Oc2ccc(CCC(C)=O)cc2)C(O)C(O)C1O (stereo not drawn) [RKGO, raspberry ketone glucoside oleate] | MGC ([2]; RKGO gels compared to saturated analogues): greater than 0.5 wt. % |
| – | – | – | – | – | – | – | – | – | PS | CC(=O)CCc1ccc(O[C@@H]2O[C@H](CO)[C@@H](O)[C@H](O)[C@H]2O)cc1 [Raspberry ketone glucoside, reference compound] | Gelation Index ([2]; Coconut Oil (edible oil)): I; Gelation Index ([2]; Grape seed Oil (edible oil)): I; Gelation Index ([2]; Hazelnut Oil (edible oil)): I; Gelation Index ([2]; Hexanes (organic solvent)): I; Gelation Index ([2]; Jojoba Oil (edible oil)): I; Gelation Index ([2]; Mineral Oil (organic solvent)): I; Gelation Index ([2]; Red Palm Oil (edible oil)): I; Gelation Index ([2]; Toluene (organic solvent)): PS |
